Tests used:
[1] = tested on: Non-Small-Cell Lung Cancer; experiment: Response rate of Iressa in Japanese NSCLC patients, without and with filtering by the serum mass spectrometer test; assay type: in vivo, human; conditions: Japanese population
Procedure: Continuing with FIG. 3, step 312, learning may be utilized in generating classifiers for a training set of spectra. In the case of sampling serum for detecting whether an anti-cancer drug will be effective on non-small-cell lung cancer, control groups of patients were utilized, including using three sets of patients whose cancer progressed following chemotherapy. Each of the patients was treated with Iressa and information, including survival times, of these patients was recorded. […] Each data set represents the cancer research center from which spectra and associated patient information was received.
TABLE III is a summary of the data set attributes used in a study to determine whether a classifier algorithm could be effective in determining whether a cancer patient would be responsive to Iressa. Data sets Italian 1, Italian 2, Japan 1, and Japan 2 were treated with Iressa following sample collection. Training and testing in the development phase was done crosswise from the Italian 1 sets and the two Japanese sets. The patient data included survival data, where the Italian set had very complete patient history together with treatment and cancer type, the Japanese sets only included prognostic information relating to the WHO definitions of clinical labels, including stable disease (SD), progressive disease (PD), and partial responders (PR) measured by CT imaging. […]

[2] = tested on: Non-Small-Cell Lung Cancer; conditions: NSCLC patients in Asia, compared with Caucasian populations; cited from earlier work

What does the source list for COc1cc2ncnc(Nc3ccc(F)c(Cl)c3)c2cc1OCCCN1CCOCC1 [Iressa, gefitinib]?
response rate of Iressa ([1]; after serum based mass spectrometer test filters non-responders from responders): 90%; response rate of Iressa ([1]; before filtering non-responders from responders): 65%; response rate [2]: considerably higher

— patent US20070231921A1, “Method and system for determining whether a drug will be effective on a patient with a disease” (priority 2006, published 2007)
